# Assay results published in patent US20070264679A1, “Method for analyzing the activity of lipoxygenase using a water-soluble substrate” (Chungnam National University Industry Collaboration …, priority 2006, published 2007).
# Legend:
# [1] = biological target: T1, Rabbit reticulocyte 15-lipoxygenase (reticulocyte LOX) (Oryctolagus cuniculus, UniProt P12530); test: Oxygenation of arachidonoyl lysophospholipids by reticulocyte LOX; format: biochemical; settings: reticulocyte LOX 2 units/ml, 50 mM phosphate buffer pH 7.4
# T1 construct: purchased Biomol Inc. (Plymouth Meeting, Pa., USA)
# T1 sequence (P12530 1-663): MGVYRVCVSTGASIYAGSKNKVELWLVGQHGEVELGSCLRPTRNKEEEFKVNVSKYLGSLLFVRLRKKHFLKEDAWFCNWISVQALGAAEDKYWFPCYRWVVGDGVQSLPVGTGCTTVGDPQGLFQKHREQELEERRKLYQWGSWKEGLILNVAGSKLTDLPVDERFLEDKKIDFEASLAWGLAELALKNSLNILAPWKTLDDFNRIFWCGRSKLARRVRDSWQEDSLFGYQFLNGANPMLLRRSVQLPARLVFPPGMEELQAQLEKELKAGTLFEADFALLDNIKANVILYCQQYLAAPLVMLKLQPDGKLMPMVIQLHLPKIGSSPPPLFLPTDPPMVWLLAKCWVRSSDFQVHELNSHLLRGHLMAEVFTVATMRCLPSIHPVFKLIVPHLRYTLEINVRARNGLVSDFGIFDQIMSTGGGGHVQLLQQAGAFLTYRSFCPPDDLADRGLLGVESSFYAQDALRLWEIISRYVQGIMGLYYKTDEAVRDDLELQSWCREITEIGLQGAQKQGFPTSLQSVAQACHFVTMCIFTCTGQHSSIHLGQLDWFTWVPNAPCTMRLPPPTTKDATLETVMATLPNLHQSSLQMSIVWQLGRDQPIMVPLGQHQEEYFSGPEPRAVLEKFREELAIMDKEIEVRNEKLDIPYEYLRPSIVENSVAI
# Procedure: (§1) Activities of various LOXs were monitored by measuring the increase in absorbance at 234 nm due to the formation of hydroperoxide (ε234=25,000 M^−1 cm^−1) at 25° C. as described before (Smith et al, J. Biol. Chem. 247 (1972) 1038-1047). One unit is defined as the amount of LOXs that can produce one nanomole of conjugated diene per min. The reaction mixture (500 μl) included reticulocyte LOX (2 units/ml) in 50 mM phosphate buffer (pH 7.4), porcine leukocyte LOX (1 unit/ml) in 100 mM phosphate buffer (pH 7.5) containing 5 mM EDTA and 0.03% Tween 20, or soybean LOX-1 (2.5 units/ml) in 50 mM borax buffer (pH 9.0) at 25° C. The reactions were started by including each substrate (100 μM) into the above reaction mixture.
# (§2) Reticulocyte LOX (2 units/ml), leukocyte LOX (1 units/ml) or soybean LOX-1 (2.5 units/ml) was incubated with each arachidonoyl derivative substrate of various concentrations as described above. The values of kinetic parameters were obtained according to Lineweaver Burke plot analyses as described before (Barroso et al, J. Chromatogr. B. Analyt. Technol. Biomed. Life. Sci. 814 (2005) 21-28).
# It is noteworthy that the efficacy of arachidonoyl-lysoPC as a substrate for leukocyte LOX was approximately 10-fold greater than that of arachidonic acid. In an additional study, the oxygenation of arachidonoyl-lysoPC or arachidonoyl-lysoPA by reticulocyte LOX was examined. […]
# [2] = biological target: T2, Leukocyte 12-lipoxygenase (leukocyte LOX) (Sus scrofa, UniProt P16469); test: Kinetics of oxygenation of arachidonic acid or arachidonoyl-lysophospholipids by leukocyte LOX; format: biochemical, porcine; settings: for Vm: 0.03% Tween 20
# T2 construct: purchased Cayman Chemical Co. (Ann Arbor, Mich., USA)
# T2 sequence (P16469 1-663): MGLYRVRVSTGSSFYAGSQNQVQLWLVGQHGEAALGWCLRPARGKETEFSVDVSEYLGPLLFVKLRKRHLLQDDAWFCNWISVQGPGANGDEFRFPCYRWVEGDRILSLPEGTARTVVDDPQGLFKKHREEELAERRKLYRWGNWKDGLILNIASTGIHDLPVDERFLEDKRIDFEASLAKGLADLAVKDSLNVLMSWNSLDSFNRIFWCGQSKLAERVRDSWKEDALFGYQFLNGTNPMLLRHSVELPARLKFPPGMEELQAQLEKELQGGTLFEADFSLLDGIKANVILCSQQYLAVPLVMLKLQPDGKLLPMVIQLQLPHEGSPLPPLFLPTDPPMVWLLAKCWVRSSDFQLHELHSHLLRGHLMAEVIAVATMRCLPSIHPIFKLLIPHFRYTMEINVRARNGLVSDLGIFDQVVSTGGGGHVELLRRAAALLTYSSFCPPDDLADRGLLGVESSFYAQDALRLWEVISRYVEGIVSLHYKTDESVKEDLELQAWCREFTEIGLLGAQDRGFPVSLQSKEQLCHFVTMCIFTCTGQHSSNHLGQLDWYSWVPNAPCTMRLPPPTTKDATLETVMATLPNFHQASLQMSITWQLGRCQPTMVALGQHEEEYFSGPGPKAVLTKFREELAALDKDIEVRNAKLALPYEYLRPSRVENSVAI
# Procedure: as §1, §2
# leukocyte LOX = biological target: T3, leukocyte LOX (Sus scrofa, UniProt P16469); test: Position specificity of leukocyte LOX in oxygenation of arachidonoyl-lysoPC (SP-HPLC of HETE); format: biochemical, porcine; settings: predominant product 12-HETE
# T3 construct: purchased Cayman Chemical Co. (Ann Arbor, Mich., USA)
# T3 sequence (P16469 1-663): T2 sequence (P16469 1-663)
# Procedure: After 30 min incubation, the reaction was stopped by the addition of sodium borohydride to reduce hydroperoxy compounds to their corresponding alcohols, which were subjected to alkaline hydrolysis. After 30 min incubation at 60° C. under N2, the mixture was subjected to lipid extraction as described previously (Leon et al, J. Agric. Food. Chem. 52 (2004) 1207-1211). Finally, the lipid extract was analyzed by SP-HPLC system equipped with silica gel column (4 μm, 150×3.9 mm, Waters, USA), which was eluted (1 ml/min) with n-hexane/isopropyl alcohol/acetic acid (100:1:0.05). The identification of hydrolysis products was carried out in comparison with each standard compound, 15-hydroxyeicosatetraenoic acid (HETE) or 12-HETE.
# To establish the position of oxygenation of arachidonoyl chain in arachidonoyl-lysoPC, hydroperoxyeicosatetraenoyl-lysoPC was subjected to NaBH4 reduction, followed by saponification in alkaline medium, to afford hydroxyeicosatetraenoic acid, which was further purified by SP-HPLC.
structure (smiles),measurement,setting,value
"CCCCC/C=C\C/C=C\C/C=C\C/C=C\CCCC(=O)OCC(O)COP(=O)([O-])OCC[N+](C)(C)C (stereo not drawn) [Arachidonoyl-lysoPC, 1-Arachidonoyl lysophosphatidylcholine]",Vm/Km value in reticulocyte LOX-catalyzed oxygenation compared with arachidonic acid,[1],somewhat greater than that of arachidonic acid
same,efficacy as a substrate for leukocyte LOX (Vm/Km) relative to arachidonic acid,[2]; greater than that of arachidonic acid,approximately 10 fold
same,Vm,"[2]; leukocyte LOX 1 unit/ml, 100 mM phosphate buffer pH 7.5, 5 mM EDTA",199.8 ± 16.7 units/mg
same,Km,"[2]; leukocyte LOX 1 unit/ml, 100 mM phosphate buffer pH 7.5, 5 mM EDTA, 0.03% Tween 20, 25° C.",2600 nM
same,Vm,"[2]; leukocyte LOX 1 unit/ml, 100 mM phosphate buffer pH 7.5, 5 mM EDTA, listed as arachidonoyl-lysoPC",199.8 units/mg
same,minor product behaving like 15-HETE in leukocyte LOX-catalyzed oxygenation,leukocyte LOX,≤ 5%
